{"source": "paper PMC8464955", "about": "“Prediction of Drug–Drug Interaction Potential of Tegoprazan Using Physiologically Based Pharmacokinetic Modeling and Simulation” (Pharmaceutics, 2021)", "tested_on": "CYP3A4", "assay": "Inhibition of tegoprazan metabolism in human liver microsomes by CYP inhibitors", "format": "in vitro ADME", "details": "in-house data", "text": "The major metabolic pathway of tegoprazan is the liver, and a negligible amount is excreted by urine. Both in vitro and clinical results have elucidated that tegoprazan is a potential substrate of cytochrome P450 (CYP) 3A4. […] According to the label of tegoprazan, systemic exposure to tegoprazan increases when tegoprazan is co-administered with clarithromycin. Based on the in vitro and clinical data, it can be inferred that drug–drug interaction (DDI) between tegoprazan and CYP3A4 inhibitor may occur. However, the clinical DDI studies of tegoprazan conducted so far have been limited to the DDI between tegoprazan and clarithromycin or clarithromycin and amoxicillin, because tegoprazan is likely to be administered with these medications for Helicobacter pylori eradication. Considering the substantial prevalence of acid-related diseases, tegoprazan is likely to be administered in combination with various drugs. […]\nThe elimination of the PBPK model consisted of enzyme kinetic and renal clearance (Table 1). Intrinsic clearances (CLint) of tegoprazan by various CYPs were determined by an in vitro study that measured the fraction of CLint inhibited by adding the inhibitors of CYP1A2, CYP2C9, CYP2C19, CYP2D6, and CYP3A to human liver microsomes (in-house data). […]", "data": [{"smiles": "CC(=O)N1CCN(c2ccc(OCC3COC(Cn4ccnc4)(c4ccc(Cl)cc4Cl)O3)cc2)CC1", "note": "(stereo not shown) [ketoconazole]", "values": [{"measurement": "effect of CYP inhibitor on the metabolism of tegoprazan", "value": "significantly inhibited"}]}]}
